Results published in publication PMC1262691, “Probing stereoselective inhibition of the acyl binding site of cholesterol esterase with four diastereomers of 2'-N-α-methylbenzylcarbamyl-1, 1'-bi-2-naphthol” (BMC Biochemistry, 2005).
Where a name gives a salt, the structure may show the parent alone.

How the values were obtained:
[1] = target: T1, pancreatic cholesterol esterase (CEase) (Sus scrofa, UniProt A0A286ZKB1); test: time-dependent (pseudo substrate) inhibition kinetics, PNPB hydrolysis at […] nm; type: biochemical
T1 construct: gene CEL
T1 sequence (A0A286ZKB1 96-682): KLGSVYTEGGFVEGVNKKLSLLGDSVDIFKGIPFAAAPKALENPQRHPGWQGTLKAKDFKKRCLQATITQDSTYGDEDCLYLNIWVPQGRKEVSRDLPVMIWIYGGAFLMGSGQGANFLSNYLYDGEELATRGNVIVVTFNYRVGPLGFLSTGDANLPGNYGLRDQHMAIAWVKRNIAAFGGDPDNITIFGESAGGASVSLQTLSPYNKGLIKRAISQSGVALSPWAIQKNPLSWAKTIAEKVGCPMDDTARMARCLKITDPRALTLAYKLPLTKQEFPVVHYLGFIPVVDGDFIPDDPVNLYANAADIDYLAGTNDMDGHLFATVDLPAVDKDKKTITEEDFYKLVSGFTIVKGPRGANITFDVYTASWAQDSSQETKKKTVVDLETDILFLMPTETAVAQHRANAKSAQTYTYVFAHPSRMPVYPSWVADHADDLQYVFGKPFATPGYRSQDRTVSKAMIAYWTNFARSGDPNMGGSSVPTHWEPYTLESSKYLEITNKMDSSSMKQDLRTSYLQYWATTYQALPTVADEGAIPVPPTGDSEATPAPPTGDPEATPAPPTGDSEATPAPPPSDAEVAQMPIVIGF

[2] = target: T1, pancreatic cholesterol esterase (CEase); test: protection of the enzyme against carbamate inactivation by […] TFA; type: biochemical
purified protein = substrate: CCCC(=O)Oc1ccc([N+](=O)[O-])cc1; test: purified protein; type: biochemical, Sus scrofa

C[C@H](NC(=O)Oc1ccc2ccccc2c1-c1c(O)ccc2ccccc12)c1ccccc1 [(1R, αS)-1, 2'-N-(S)-α-methylbenzylcarbamyl-(R)-1, 1'-bi-2-naphthol]
KI (inactivation) [1]: 500 ± 30 nM

C[C@H](NC(=O)Oc1ccc2ccccc2c1-c1c(O)ccc2ccccc12)c1ccccc1 [(1S, αS)-1, 2'-N-(S)-α-methylbenzylcarbamyl-(S)-1, 1'-bi-2-naphthol]
KI (inactivation) [1]: 6000 ± 400 nM

O=C(c1ccccc1)C(F)(F)F [TFA, trifluoroacetophenone]
protection of the enzyme against carbamate inactivation by 2 μM TFA [2]: the enzyme is protected from inhibition by carbamate by binding of TFA

C[C@@H](NC(=O)Oc1ccc2ccccc2c1-c1c(O)ccc2ccccc12)c1ccccc1 [(1R, αR)-1, 2'-N-(R)-α-methylbenzylcarbamyl-(R)-1, 1'-bi-2-naphthol]
KI (inactivation) [1]: 200 ± 10 nM

C[C@@H](NC(=O)Oc1ccc2ccccc2c1-c1c(O)ccc2ccccc12)c1ccccc1 [(1S, αR)-1, 2'-N-(R)-α-methylbenzylcarbamyl-(S)-1, 1'-bi-2-naphthol]
KI (inactivation) [1]: 2000 ± 100 nM

B1: pancreatic cholesterol esterase (CEase) (Sus scrofa) (protein)
chain: KLGSVYTEGGFVEGVNKKLSLLGDSVDIFKGIPFAAAPKALENPQRHPGWQGTLKAKDFKKRCLQATITQDSTYGDEDCLYLNIWVPQGRKEVSRDLPVMIWIYGGAFLMGSGQGANFLSNYLYDGEELATRGNVIVVTFNYRVGPLGFLSTGDANLPGNYGLRDQHMAIAWVKRNIAAFGGDPDNITIFGESAGGASVSLQTLSPYNKGLIKRAISQSGVALSPWAIQKNPLSWAKTIAEKVGCPMDDTARMARCLKITDPRALTLAYKLPLTKQEFPVVHYLGFIPVVDGDFIPDDPVNLYANAADIDYLAGTNDMDGHLFATVDLPAVDKDKKTITEEDFYKLVSGFTIVKGPRGANITFDVYTASWAQDSSQETKKKTVVDLETDILFLMPTETAVAQHRANAKSAQTYTYVFAHPSRMPVYPSWVADHADDLQYVFGKPFATPGYRSQDRTVSKAMIAYWTNFARSGDPNMGGSSVPTHWEPYTLESSKYLEITNKMDSSSMKQDLRTSYLQYWATTYQALPTVADEGAIPVPPTGDSEATPAPPTGDPEATPAPPTGDSEATPAPPPSDAEVAQMPIVIGF
Km (purified protein): 140 ± 10 µM
